Results taken from PubChem BioAssay (NCI).
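Cultured in 96-well plates, cells were exposed to test compound for 48 hours across five concentrations. TGI marks complete inhibition of growth.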

What was measured:
Assay in all cases: inhibition of tumour cell growth, NCI panel, 48 h
U251 CNS = system: U251 CNS
SK-MEL-5 melanoma = system: SK-MEL-5 melanoma
A549 NSCLC = system: A549 NSCLC
IGROV1 ovarian = system: IGROV1 ovarian
SF-539 CNS = system: SF-539 CNS
HOP-62 NSCLC = system: HOP-62 NSCLC
SW-620 colon = system: SW-620 colon
UACC-62 melanoma = system: UACC-62 melanoma
CCRF-CEM leukemia = system: CCRF-CEM leukemia
MDA-MB-435 = system: MDA-MB-435
RPMI-8226 leukemia = system: RPMI-8226 leukemia
SR leukemia = system: SR leukemia

Q: For `COC(=O)/C=C/C(=O)Nc1cc(Cl)c(Cl)cc1CC(=O)N(C)[C@H]1CCCC[C@@H]1N1CCCC1`, which TGI (U251 CNS) is on record?
A: The TGI was 31.6 µM.

Q: And the TGI (SK-MEL-5 melanoma)?
A: The TGI was 22.9 µM.

Q: And the TGI (A549 NSCLC)?
A: Its TGI is over 54.2 µM.

Q: And the TGI (IGROV1 ovarian)?
A: The TGI was 22 µM.

Q: What about the TGI (SF-539 CNS) of the same compound?
A: Its TGI is 13.3 µM.

Q: And the TGI (HOP-62 NSCLC)?
A: Its TGI is 33.3 µM.

Q: What about the TGI (SW-620 colon) of the same compound?
A: The TGI was 26.7 µM.

Q: What about the TGI (UACC-62 melanoma) of the same compound?
A: Its TGI is 28.4 µM.

Q: What about the TGI (CCRF-CEM leukemia) of the same compound?
A: Its TGI is over 100 µM.

Q: What about the TGI (MDA-MB-435) of the same compound?
A: The TGI was over 39.3 µM.

Q: What about the TGI (RPMI-8226 leukemia) of the same compound?
A: The TGI was 19.2 µM.

Q: And the TGI (SR leukemia)?
A: The TGI was over 28.3 µM.

Q: `CCOC(=O)CON=c1c2ccccc2ccc2ccccc12` was tested. Which TGI (U251 CNS) did it give?
A: The TGI was over 100 µM.

Q: And the TGI (SK-MEL-5 melanoma)?
A: Its TGI is over 100 µM.

Q: And the TGI (A549 NSCLC)?
A: Its TGI is over 100 µM.

Q: What about the TGI (IGROV1 ovarian) of the same compound?
A: The TGI was over 100 µM.

Q: And the TGI (SF-539 CNS)?
A: Its TGI is over 100 µM.

Q: What about the TGI (HOP-62 NSCLC) of the same compound?
A: The TGI was over 100 µM.

Q: What about the TGI (SW-620 colon) of the same compound?
A: The TGI was over 100 µM.

Q: What about the TGI (UACC-62 melanoma) of the same compound?
A: Its TGI is over 100 µM.

Q: And the TGI (CCRF-CEM leukemia)?
A: The TGI was over 100 µM.

Q: And the TGI (MDA-MB-435)?
A: The TGI was over 100 µM.

Q: What about the TGI (RPMI-8226 leukemia) of the same compound?
A: Its TGI is over 100 µM.

Q: What about the TGI (SR leukemia) of the same compound?
A: The TGI was over 100 µM.

Q: What does the source list for `COc1ccc(OC2OC(CO)C(O)C(O)C2O)cc1` (stereo unspecified)?
A: TGI (U251 CNS): > 100 µM; TGI (SK-MEL-5 melanoma): > 100 µM; TGI (A549 NSCLC): > 100 µM; TGI (IGROV1 ovarian): > 100 µM; TGI (SF-539 CNS): > 100 µM; TGI (HOP-62 NSCLC): > 100 µM; TGI (SW-620 colon): > 100 µM; TGI (UACC-62 melanoma): > 100 µM; TGI (CCRF-CEM leukemia): > 100 µM; TGI (MDA-MB-435): > 100 µM; TGI (RPMI-8226 leukemia): > 100 µM; TGI (SR leukemia): > 100 µM
